Reference: US7985774B2, “Use of 3,5-seco-4-nor-cholestane derivatives for obtaining a cytoprotective drug” (Trophos, priority 2006, dated 2011)

How the values were obtained:
CD1 mice = assay: Acute hepatotoxicity: intoxication by Jo2 anti-Fas antibody and assaying ALATs; format: in vivo; conditions: blood 24 hrs after Jo2, control 2,860 ± 382
Text: An acute model of hepatic damage may be induced by a single injection of the Jo2 anti-Fas antibody (Ogasawara et al., Nature, August 1993), producing severe hepatic damages and resembling viral, auto-immune or drug-induced hepatitis.
Alanine Aminotransferase (ALAT) also called Serum Glutamic Pyruvic Transaminase (SGPT) is an enzyme present in hepatocytes.
Male adult CD1 mice from the breeder “Elevage Janvier”, (Le Genest-Saint-Isle, France) were used. The animals were identified individually and had free access to water and food.
A stock solution of monoclonal hamster anti-mouse CD95 (Fas) antibody, called Jo2, from Pharmingen (BD Biosciences, ref. 554254 batch 32699) is prepared at a concentration of 1 mg/mL in water. The dilutions used are made in 0.9% sodium chloride in water.
The desired amount of 3,5-seco-4-nor-cholestan-5-one oxime-3-ol is weighed and milled into a fine powder, and then mixed with Cremophore EL (Sigma C5135) and absolute ethanol (Carlo Erba RPE 41571) (5% and 10% of the final volume, respectively). After complete dissolution, 0.9% sodium chloride in water is added extemporaneously (85% of the final volume).
Pretreatment with 3,5-seco-4-nor-cholestan-5-one oxime-3-ol is carried out with dosages of 10 and 30 mg/kg by intraperitoneal administration 1 hr before administering the Jo2 antibody. […]

[1] = system: rabbit ventricular cardiomyocytes; assay: Contractile dysfunction test induced by doxorubicin (sarcomer shortening); format: cell-based; conditions: after 4 hrs of exposure
Protocol: A stock solution of 3,5-seco-4-nor-cholestan-5-one oxime-3-ol at a concentration of 10 mM in 100% DMSO was used.
The final concentration in DMSO was the same for all the experimental points, independently of the molecular concentrations used.
3,5-seco-4-nor-cholestan-5-one oxime-3-ol was tested at concentrations of 0.1 and 0.3 μM, diluted in a Tyrode solution (composition in mmol/L: NaCl 135, KCl 5.4, NaH2PO4 0.33, CaCl2 1.2, MgCl2 1.0, Hepes 10; pH adjusted to 7.4 with NaOH).
Isolated ventricular cells are obtained from hearts of male New Zealand rabbits as described in A. d'Anglemont de Tassigny et al., Fund. Clin. Pharmacol, 18: 531-38, 2004. Briefly, the rabbits (2.0-2.5 kg) are anaesthetized with a pentobarbital solution (50 mg/kg) and they then receive heparin (200 IU/kg). The hearts are excised and immediately perfused, for 10-15 minutes by means of a Langendorff apparatus without recirculation with an oxygenated tyrode (calcium-free) isotonic solution (95%, 2-5% CO2) (in mM: NaCl 135, KCl 5.4, Na2PO4 0.33, MgCl2 1.0, HEPES 10, pH adjusted to 7.4 with 1N NaOH at 37° C., 280-300 mOsmol/kgH2O). […]
The myocytes were selected for the study according to the following criterion: a rod-like aspect with very apparent striations and no intracellular vacuola, no spontaneous contraction when they are stimulated with 1 mM Ca^2+, and with constant rest length and contraction amplitude. The length of the sarcomers was measured by means of a video image analysis program and the data were acquired at a rate of 240 samples/s. […]
Apoptosis is induced in isolated cardiomyocytes by 3-8 hour exposure to 1 μM of doxorubicin added into an isotonic solution containing (in mM) NaCl 110, KCl 5.4, Na2PO4 0.33, NaHCO3 25, glucose 5, MgCl2 0.8, CaCl2 1, pH adjusted to 7.4. […] The contractility of cardiomyocytes was measured every hour during the 8 hrs of exposure to doxorubicin. […]

How did the “ALAT activity Average +/− SEM” value (CD1 mice; 10 mg/kg i.p. 1 hr before Jo2 125 μg/kg i.p.) turn out when `CC(C)CCC[C@@H](C)[C@H]1CC[C@H]2[C@@H]3CC/C(=N\O)[C@](C)(CCCO)[C@H]3CC[C@]12C` [3,5-seco-4-nor-cholestan-5-one oxime-3-ol] was run?
The value was 511 ± 140 U/L.

What about the “ALAT activity Average +/− SEM” value (CD1 mice; 30 mg/kg i.p. 1 hr before Jo2 125 μg/kg i.p.) of the same molecule?
Its value is 533 ± 150 U/L.

And the “shortening of the peak relatively to the base line” value ([1]; doxorubicin 1 μM + compound 0.1 μM (15 min pre-treatment))?
Its value is 18.9±5.4%.

And the “shortening of the peak relatively to the base line” value ([1]; doxorubicin 1 μM + compound 0.3 μM (15 min pre-treatment))?
The value was −8.1±9.6%.
